Assay results: PubChem BioAssay (NCI)
Values joined by “and” are separate entries in the source; they are usually repeats but may differ in a detail not shown here. Equal entries are not always repeated.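 Grown in 96-well plates, cells were treated for 48 hours with each compound at five concentrations. Insufficient inhibition: endpoint recorded as highest concentration tested. GI50 is the concentration that inhibits growth by half. TGI: total growth inhibition.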

Columns and labels:
Test in all cases: NCI tumour cell line growth inhibition, 48 h
DLD-1 colon = system: DLD-1 colon
KM20L2 colon = system: KM20L2 colon
LXFL 529 NSCLC = system: LXFL 529 NSCLC
RXF-631 renal = system: RXF-631 renal
SNB-78 CNS = system: SNB-78 CNS
XF 498 CNS = system: XF 498 CNS
HOP-18 NSCLC = system: HOP-18 NSCLC
MDA-N = system: MDA-N
P388 leukemia = system: P388 leukemia
P388/ADR leukemia = system: P388/ADR leukemia
T-47D breast = system: T-47D breast

Structure (SMILES)	TGI (DLD-1 colon)	TGI (KM20L2 colon)	TGI (LXFL 529 NSCLC) [µM]	TGI (RXF-631 renal) [µM]	TGI (SNB-78 CNS)	TGI (XF 498 CNS)	TGI (HOP-18 NSCLC)	GI50 (DLD-1 colon) [µM]	GI50 (HOP-18 NSCLC)	GI50 (KM20L2 colon) [µM]	TGI (MDA-N) [µM]	GI50 (P388 leukemia) [nM]	TGI (P388 leukemia)	GI50 (P388/ADR leukemia) [nM]	TGI (P388/ADR leukemia)	GI50 (SNB-78 CNS) [µM]	GI50 (T-47D breast) [µM]	TGI (T-47D breast)	GI50 (XF 498 CNS)
COc1ccc(/C=C\c2cc(OC)c(OC(C)=O)c(OC)c2)cc1	> 100 µM	> 100 µM	> 100	> 100	73.9 µM	> 100 µM	–	–	–	–	–	–	–	–	–	–	–	–	–
CCn1cc(C(=O)O)c(=O)c2cc(F)c(N3CCNCC3)nc21	> 100 µM	–	> 100	> 100	> 100 µM	–	> 100 µM	–	–	–	–	–	–	–	–	–	–	–	–
CC(=O)c1ccc(-c2ccc(C(C)=O)s2)s1	> 100 µM	> 100 µM	> 100	> 100	> 100 µM	> 100 µM	> 100 µM	–	–	–	–	–	–	–	–	–	–	–	–
Cn1c(=O)ccc2cc(C(=O)c3ccccc3)ccc21	> 100 µM	> 100 µM	> 100	> 100	–	> 100 µM	> 100 µM	–	–	–	–	–	–	–	–	–	–	–	–
CCCCCCCCCCCCCCCc1nc(SCC(=O)O)n[nH]1	56.1 µM	–	66.4	> 100	> 100 µM	> 100 µM	> 100 µM	–	–	–	–	–	–	–	–	–	–	–	–
CC1(C)OC(=O)C(c2ccsc2)C(=O)O1	> 100 µM	> 100 µM	> 100	> 100	> 100 µM	> 100 µM	> 100 µM	–	–	–	–	–	–	–	–	–	–	–	–
N[C@@H](Cc1ccc(N(CCCl)CCCl)cc1)C(=O)O	> 92 µM and 193 µM	> 31.6 µM and 193 µM	110	–	83.7 µM and 205 µM	49.3 µM and 66.3 µM	64.5 µM and 158 µM	24.5	23.7 µM and 55.1 µM	14	126	1790	35.9 µM and 42.9 µM	2590	37.7 µM and 76.3 µM	25.6	34.3	> 100 µM and 116 µM	20.9 µM and 22 µM
CC(=O)NC1C(OCc2ccccc2)OC(COC(=O)CCCCCCCCCCNC(=O)CCNc2ccc([N+](=O)[O-])c3[nH]c4ccc(O)cc4c(=O)c23)C(O)C1OC(C)C(=O)N[C@H](C(=O)N[C@H](CCC(=O)O)C(N)=O)C(C)C (some centres undefined)	> 100 µM	> 100 µM	> 100	> 100	> 100 µM	–	> 100 µM	–	–	–	–	–	–	–	–	–	–	–	–
OCC1C2C=CC(O2)[C@H]1CO (some centres undefined)	> 100 µM	> 100 µM	> 100	> 100	> 100 µM	–	> 100 µM	–	–	–	–	–	–	–	–	–	–	–	–
COC(=O)C1=CCS(=O)(=O)C1	> 100 µM	> 100 µM	> 100	> 100	> 100 µM	> 100 µM	> 100 µM	–	–	–	–	–	–	–	–	–	–	–	–
O=c1cc(/C=C/c2ccccc2)c2ccc(O/C(=C\c3ccccc3)c3nc4ccccc4c(=O)o3)cc2o1	> 100 µM	> 100 µM	63.9	> 100	70.8 µM	70.5 µM	–	–	–	–	–	–	–	–	–	–	–	–	–
COc1nc(C(Cl)(Cl)Cl)c(Cl)c(OC)c1Cl	79.8 µM	55.7 µM and 85.2 µM	–	49.4	72.3 µM	54.5 µM	70.1 µM	31.7	–	21	57.5	–	43 µM	–	85.9 µM	–	–	77.6 µM	–
COc1cc(C2C(C(=O)Nc3ccccc3C)=C(C)NC(C)=C2C(=O)Nc2ccccc2C)ccc1O	> 100 µM	> 100 µM	> 100	> 100	> 100 µM	> 100 µM	> 100 µM	–	–	–	–	–	–	–	–	–	–	–	–
